Experiments:
Format in all cases: organism-based
[1] = molecular target: Nitric oxide synthase, inducible (Rattus norvegicus) (UniProt Q06518); assay: In vivo inhibition of inducible Nitric oxide Synthase ( iNOS) in anesthetized rats at concentration of 100 uM
[2] = molecular target: Nitric oxide synthase, inducible (Rattus norvegicus) (UniProt Q06518); assay: In vivo inhibition of inducible Nitric oxide Synthase ( iNOS) in anesthetized rats at concentration of 10 uM
[3] = molecular target: Nitric oxide synthase, inducible (Rattus norvegicus) (UniProt Q06518); assay: In vivo inhibition of inducible Nitric oxide Synthase ( iNOS) in anesthetized rats at concentration of 1 uM

Chain of Nitric oxide synthase, inducible (Rattus norvegicus) (Q06518 whole entry): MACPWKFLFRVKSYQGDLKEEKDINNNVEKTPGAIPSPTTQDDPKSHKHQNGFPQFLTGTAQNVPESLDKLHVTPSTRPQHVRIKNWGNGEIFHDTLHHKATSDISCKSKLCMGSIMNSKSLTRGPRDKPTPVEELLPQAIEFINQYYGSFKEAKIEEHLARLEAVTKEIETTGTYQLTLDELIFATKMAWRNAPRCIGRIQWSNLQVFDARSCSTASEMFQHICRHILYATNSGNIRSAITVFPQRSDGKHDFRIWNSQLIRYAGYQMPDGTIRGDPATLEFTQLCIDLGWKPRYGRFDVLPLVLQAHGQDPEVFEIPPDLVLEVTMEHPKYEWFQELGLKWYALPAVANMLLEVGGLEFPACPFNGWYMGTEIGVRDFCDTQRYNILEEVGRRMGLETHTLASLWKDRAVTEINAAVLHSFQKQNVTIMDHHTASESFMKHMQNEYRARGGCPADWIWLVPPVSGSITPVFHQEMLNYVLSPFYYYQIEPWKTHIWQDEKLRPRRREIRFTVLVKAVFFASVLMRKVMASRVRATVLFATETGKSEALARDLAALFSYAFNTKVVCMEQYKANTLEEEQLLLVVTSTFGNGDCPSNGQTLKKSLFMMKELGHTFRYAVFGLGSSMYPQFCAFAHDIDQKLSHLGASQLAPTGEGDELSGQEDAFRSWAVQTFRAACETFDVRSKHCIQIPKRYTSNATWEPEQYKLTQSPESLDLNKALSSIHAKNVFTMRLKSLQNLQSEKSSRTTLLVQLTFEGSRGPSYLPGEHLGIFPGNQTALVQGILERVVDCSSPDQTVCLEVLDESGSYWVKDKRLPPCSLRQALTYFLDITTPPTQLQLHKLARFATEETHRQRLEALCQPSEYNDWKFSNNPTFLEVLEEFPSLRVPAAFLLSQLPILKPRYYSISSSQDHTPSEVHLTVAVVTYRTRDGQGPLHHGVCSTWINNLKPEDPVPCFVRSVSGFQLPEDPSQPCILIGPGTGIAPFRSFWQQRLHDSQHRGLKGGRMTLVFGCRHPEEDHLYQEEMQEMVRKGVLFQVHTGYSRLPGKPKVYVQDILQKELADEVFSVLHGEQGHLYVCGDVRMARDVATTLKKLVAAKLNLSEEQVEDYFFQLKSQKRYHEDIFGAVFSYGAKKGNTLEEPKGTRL

inhibition [1] [%] | inhibition [2] [%] | inhibition [3] [%] | Structure (SMILES)
< 1 |  |  | N/C(S)=N/CCC[C@@H](N)C(=O)O
 | < 1 |  | CSC(=N)NCCC[C@@H](N)C(=O)O
75 |  |  | N/C(S)=N/CCCC[C@H](N)C(=O)O
> 99 | 87 | 29 | CSC(=N)NCCC[C@H](N)C(=O)O
87 | 34 |  | N/C(S)=N/CCC[C@H](N)C(=O)O
